Read-outs that look alike come from different tables or passages of the source.
Tests used:
[1] = tested on: influenza A virus A/PR/8/34 (H1N1); experiment: microbe, parasite or virus in culture; format: cell-based; details: read-out: IC50 H1N1 PR8 strain
[2] = tested on: influenza A virus A/Aichi/2/68 (H3N2); experiment: microbe, parasite or virus in culture; format: cell-based; details: read-out: IC50 H3N2 Aichi strain
[3] = tested on: HIV-reverse transcriptase; set-up: method as in PMID 15686922; details: cited from earlier work
[4] = set-up: method as in earlier work; details: cited from earlier work

Row | Compound | IC50 ([1]; Influenza A virus, MDCK, 24 h) | IC50 ([2]; Influenza A virus, H3N2, MDCK, 24 h) | inhibition of HIV-reverse transcriptase [3] | IC50 [1] | IC50 [2] | antioxidant activity [4]
1 | O=C(O)C1NC(C(=O)O)C23c4c5c6c7c8c9c(c%10c%11c2c2c4c4c%12c5c5c6c6c8c8c%13c9c9c%10c%10c%11c%11c2c2c4c4c%12c%12c5c5c6c8c6c8c%13c9c9c%10c%10c%11c2c2c4c4c%12c5c6c5c8c9c%10c2c45)C713 (stereo not drawn) [no. 3, [60]fullerenopyrrolidine-2,5-dicarboxylic acid] | > 100 µM | > 100 µM | inhibits |  |  | 
2 | [60]fullerenodicyclopropane-1,1,1′,1′-tetracarboxylic acid [no. 2] |  |  |  | 57 µM | > 100 µM | excellent antioxidant activity
